How the values were obtained:
Assay type in all cases: cell-based
PPARγ = biological target: T1, PPARγ (Homo sapiens, UniProt P37231); test: PPARγ reporter (CTF) functional assay in CV1 cells; conditions: examined up to 10 M; versus 10 μM PPAR agonist reference compound
T1 construct: expressed in transfected cells; host or cells: CV1 (African green monkey kidney)
T1 sequence (P37231 1-505): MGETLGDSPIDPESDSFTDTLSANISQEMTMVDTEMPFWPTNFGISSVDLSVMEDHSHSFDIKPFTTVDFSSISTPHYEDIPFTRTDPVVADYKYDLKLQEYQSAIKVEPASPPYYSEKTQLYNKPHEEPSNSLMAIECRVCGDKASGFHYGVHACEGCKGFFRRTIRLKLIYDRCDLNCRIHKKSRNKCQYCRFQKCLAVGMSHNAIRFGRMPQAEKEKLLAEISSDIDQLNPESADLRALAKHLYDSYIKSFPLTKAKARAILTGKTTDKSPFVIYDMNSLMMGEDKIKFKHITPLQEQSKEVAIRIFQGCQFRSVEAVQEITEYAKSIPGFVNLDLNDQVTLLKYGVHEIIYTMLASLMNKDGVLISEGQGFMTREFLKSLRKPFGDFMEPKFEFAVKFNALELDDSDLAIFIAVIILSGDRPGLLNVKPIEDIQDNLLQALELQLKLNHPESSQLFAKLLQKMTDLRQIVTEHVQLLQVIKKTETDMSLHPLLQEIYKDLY
T1 sequence (P19793 1-462 partner): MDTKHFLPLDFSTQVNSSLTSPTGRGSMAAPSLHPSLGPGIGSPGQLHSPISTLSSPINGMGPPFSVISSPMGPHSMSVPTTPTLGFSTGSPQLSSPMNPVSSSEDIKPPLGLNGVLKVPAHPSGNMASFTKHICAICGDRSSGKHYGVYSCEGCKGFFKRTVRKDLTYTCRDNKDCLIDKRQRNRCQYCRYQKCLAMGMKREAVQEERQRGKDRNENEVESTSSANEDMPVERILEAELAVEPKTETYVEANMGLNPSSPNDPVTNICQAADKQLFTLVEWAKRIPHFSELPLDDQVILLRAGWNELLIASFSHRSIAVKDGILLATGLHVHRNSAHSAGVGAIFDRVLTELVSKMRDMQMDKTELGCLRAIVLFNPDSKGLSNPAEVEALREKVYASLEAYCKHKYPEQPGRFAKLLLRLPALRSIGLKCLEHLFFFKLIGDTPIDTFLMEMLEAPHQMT
Experimental: Because GPR40 is known to be activated by ligands to PPARγ, exemplified compounds are examined in Gal4 PPARα, Gal4 PPARδ, and PPARγ reporter assays to determine the selectivity of exemplified compounds for PPAR receptors. CV1 cells, which are derived from the renal tissue of an African green monkey, are transfected with various receptor and reporter plasmids using Fugene. […] After 24 hours incubation with compounds, cells are lysed and luciferase activity is determined as a measure of receptor activation by luminescence. […] The maximum percent stimulation is determined versus maximum stimulation obtained with 10 μM of an appropriate PPAR agonist reference compound, 2-methyl-2-(4-{2-methyl-3-[2-(phenylcarbonyl)-4-(trifluoromethoxy)phenoxy]propoxy}phenoxy)propanoic acid. […] Efficacy was negative for PPARα, PPARδ, and PPARγ is detected with the compound of Example 1 when examined up to […] in the specific PPAR co-transfection (CTF) functional assays described above. […]

hGPR40 [1] = biological target: T2, hGPR40 (Homo sapiens, UniProt O14842); test: Calcium Flux Primary Assay (FLIPR, Calcium 4 Dye); parameters: expressed in transfected cells; host or cells: HEK293; conditions: HEK293 cells over expressing human GPR40; Mean±SEM
Experimental: HEK293 cells over expressing the human GPR40 cDNA maintained in Dulbecco's modified Eagle's medium with F12 medium in 3:1 ratio supplemented with 10% FBS and 800 μg/ml geneticin at 37° C. and 5% CO2 are employed for the study. Agonist assays are performed using a Calcium 4 Dye assay kit (Molecular Devices) in the presence or absence of 0.1% fatty acid free BSA in the assay buffer (1×HBSS (Hank's Balanced Salt Solution) & 20 mM HEPES (4-(2-hydroxyethyl)-1-piperazineethanesulfonic acid). Receptor activation is measured as an increase in intracellular calcium using the Fluorometric Imaging Plate Reader (FLIPR). Maximum change in fluorescence over the base line is used to determine the agonist response. The EC50 value of the compound is calculated using Excel Fit software (version 4; IDBS) by plotting concentration vs relative fluorescence units (RFUs).
Target sequence in this assay (O14842 whole entry): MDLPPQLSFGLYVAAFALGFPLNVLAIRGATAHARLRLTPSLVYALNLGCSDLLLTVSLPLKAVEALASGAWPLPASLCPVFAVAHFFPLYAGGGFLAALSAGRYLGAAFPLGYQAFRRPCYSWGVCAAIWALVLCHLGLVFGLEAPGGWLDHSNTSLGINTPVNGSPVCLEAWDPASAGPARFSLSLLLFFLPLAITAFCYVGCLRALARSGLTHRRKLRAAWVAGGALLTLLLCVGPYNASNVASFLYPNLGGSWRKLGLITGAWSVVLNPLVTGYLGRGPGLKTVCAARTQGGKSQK

hGPR40 [2] = biological target: T2, hGPR40; test: Human beta-arrestin agonist assay with 1% FBS (PathHunter, hEK293-hFFAR1); parameters: host or cells: HEK293 (hEK293-hFFAR1 PathHunter cells)
Text: Human embryonic kidney (hEK293)-hFFAR1 cells are purchased from DiscoveRx. Human osteosarcoma (U2OS) cells expressing mFFAR1 are developed by DiscoveRX. These cells co-express the Prolink (PK)-tagged GPR40 and the Enzyme Acceptor (EA)-tagged beta-arrestin fusion proteins. If activation of the GPR40 stimulates beta-arrestin recruitment, it would force complementation of the beta galactosidase (B-gal) enzyme fragments, forming a B-gal enzyme that generates a chemiluminescent signal using the DiscoveRx PathHunter detection kit. Cells are incubated overnight at 5,000 cells/well in 384 well plates in culture media containing 1% FBS (fetal bovine serum). Serial diluted compounds in DMSO (2× dilutions to generate 20 concentrations) are step down diluted in culture media containing 1% FBS (fetal bovine serum) and added to cells with a final top concentration starting of 100 μM. After addition of compounds, cells are incubated for 90 min at 37° C. in 5% CO2 incubator, and DiscoveRX kit detection reagents are added. Measurement of the chemiluminescent signal is ascertained with the Envision reader, after a 1-hour incubation at room temperature. Data are fit to a 4 parameter-fit logistics to determine EC50 values; % activity is measured versus maximum response to TAK875 at 1 μM.
Target sequence in this assay (O14842 whole entry): as above
Target sequence in this assay (P32121 whole entry partner): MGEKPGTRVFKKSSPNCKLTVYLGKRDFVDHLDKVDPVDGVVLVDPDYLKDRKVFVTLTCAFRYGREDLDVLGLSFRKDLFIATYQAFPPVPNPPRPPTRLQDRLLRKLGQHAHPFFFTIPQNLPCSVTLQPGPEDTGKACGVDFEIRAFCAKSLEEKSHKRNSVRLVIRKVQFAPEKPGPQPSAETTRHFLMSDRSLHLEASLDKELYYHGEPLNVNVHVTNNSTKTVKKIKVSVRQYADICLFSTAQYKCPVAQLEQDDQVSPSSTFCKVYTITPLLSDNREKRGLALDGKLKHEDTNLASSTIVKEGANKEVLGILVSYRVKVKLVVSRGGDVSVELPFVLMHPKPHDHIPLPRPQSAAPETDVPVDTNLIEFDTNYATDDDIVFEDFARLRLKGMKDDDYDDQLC

EC50 (hGPR40 [1]): 146 nM
EC50 (hGPR40 [2]; 1% FBS, 90 min, read-out: hGPR40 b-arrestin EC50): 47.4 nM
hGPR40 b-arrestin % stimulation max (FA) (hGPR40 [2]; versus maximum response to TAK875 at 1 μM): 163%
SMILES: CC#C[C@@H](CC(=O)O)c1ccc(OCc2cc(-c3ccccc3C)cn3ncnc23)cc1 [Example 1, (S)-3-[4-(6-o-Tolyl-[1,2,4]triazolo[1,5-a]pyridin-8-ylmethoxy)-phenyl]-hex-4-ynoic acid]
Efficacy for PPARγ (PPARγ): negative (Efficacy of <20% is considered negative)

Reference: patent US9617263B2, “Phenyl-triazolo-pyridine compounds” (Eli Lilly and Company, priority 2014, dated 2017)
